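Where inhibition never reached the appropriate level, the endpoint shown equals the highest concentration tested. Otherwise, values were interpolated linearly from a five-concentration, 48-hour dose response in 96-well plates. Abbreviation: GI50, concentration required for 50% inhibition of growth. TGI denotes the concentration required for complete inhibition of growth.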
Legend:
Experiment in all cases: growth of human tumour cells (NCI), 48 h
786-0 renal = test system: 786-0 renal
T-47D breast = test system: T-47D breast
UO-31 renal = test system: UO-31 renal
UACC-257 melanoma = test system: UACC-257 melanoma
MCF7 breast = test system: MCF7 breast
NCI-H226 lung = test system: NCI-H226 lung
M14 melanoma = test system: M14 melanoma
SR leukemia = test system: SR leukemia
OVCAR-5 ovarian = test system: OVCAR-5 ovarian
HT29 colon = test system: HT29 colon
SN12C renal = test system: SN12C renal
EKVX NSCLC = test system: EKVX NSCLC
COLO 205 colon = test system: COLO 205 colon
NCI-H522 lung = test system: NCI-H522 lung
SK-MEL-28 melanoma = test system: SK-MEL-28 melanoma
U251 CNS = test system: U251 CNS
A498 renal = test system: A498 renal
CCRF-CEM leukemia = test system: CCRF-CEM leukemia
HOP-62 NSCLC = test system: HOP-62 NSCLC
RPMI-8226 leukemia = test system: RPMI-8226 leukemia
HCT-116 colon = test system: HCT-116 colon
DU-145 prostate = test system: DU-145 prostate
HCT-15 colon = test system: HCT-15 colon
UACC-62 melanoma = test system: UACC-62 melanoma
PC-3 prostate = test system: PC-3 prostate
MOLT-4 leukemia = test system: MOLT-4 leukemia
SK-MEL-5 melanoma = test system: SK-MEL-5 melanoma
SF-268 CNS = test system: SF-268 CNS
HOP-92 NSCLC = test system: HOP-92 NSCLC
SF-295 CNS = test system: SF-295 CNS
K-562 leukemia = test system: K-562 leukemia
BT-549 breast = test system: BT-549 breast
SW-620 colon = test system: SW-620 colon
SNB-19 CNS = test system: SNB-19 CNS
RXF 393 renal = test system: RXF 393 renal
SK-MEL-2 melanoma = test system: SK-MEL-2 melanoma
SF-539 CNS = test system: SF-539 CNS
SK-OV-3 ovarian = test system: SK-OV-3 ovarian
MDA-MB-231 breast = test system: MDA-MB-231 breast
SNB-75 CNS = test system: SNB-75 CNS
HS 578T breast = test system: HS 578T breast
HL-60(TB) leukemia = test system: HL-60(TB) leukemia
OVCAR-8 ovarian = test system: OVCAR-8 ovarian
HCC-2998 colon = test system: HCC-2998 colon
OVCAR-3 ovarian = test system: OVCAR-3 ovarian
OVCAR-4 ovarian = test system: OVCAR-4 ovarian
NCI-H23 lung = test system: NCI-H23 lung
LOX IMVI melanoma = test system: LOX IMVI melanoma
NCI/ADR-RES ovarian = test system: NCI/ADR-RES ovarian
A549 NSCLC = test system: A549 NSCLC
MDA-MB-435 = test system: MDA-MB-435
IGROV1 ovarian = test system: IGROV1 ovarian
NCI-H460 lung = test system: NCI-H460 lung
KM12 colon = test system: KM12 colon

Cc1ccc(-c2csc3ncnc(Nc4cccc(O)c4)c23)cc1
GI50 (786-0 renal): 19.9 µM
TGI (786-0 renal): 42.8 µM
GI50 (T-47D breast): 44 µM
TGI (T-47D breast): > 100 µM
GI50 (UO-31 renal): 35.5 µM
TGI (UO-31 renal): > 100 µM
GI50 (UACC-257 melanoma): 17.5 µM
TGI (UACC-257 melanoma): 38.9 µM
GI50 (MCF7 breast): 41.6 µM
TGI (MCF7 breast): > 100 µM
GI50 (NCI-H226 lung): 38.1 µM
TGI (NCI-H226 lung): > 100 µM
GI50 (M14 melanoma): 17.9 µM
TGI (M14 melanoma): 37.3 µM
GI50 (SR leukemia): 15.2 µM
TGI (SR leukemia): 77.5 µM
GI50 (OVCAR-5 ovarian): 25.5 µM
TGI (OVCAR-5 ovarian): 69.6 µM
GI50 (HT29 colon): 39.7 µM
TGI (HT29 colon): > 100 µM
GI50 (SN12C renal): 34.1 µM
TGI (SN12C renal): > 100 µM
GI50 (EKVX NSCLC): 37.8 µM
TGI (EKVX NSCLC): 98 µM
GI50 (COLO 205 colon): 36.4 µM
TGI (COLO 205 colon): > 100 µM
GI50 (NCI-H522 lung): 18.5 µM
TGI (NCI-H522 lung): 62.1 µM
GI50 (SK-MEL-28 melanoma): 43.1 µM
TGI (SK-MEL-28 melanoma): > 100 µM
GI50 (U251 CNS): 22.5 µM
TGI (U251 CNS): 58.6 µM
GI50 (A498 renal): 30.8 µM
TGI (A498 renal): 66.5 µM
GI50 (CCRF-CEM leukemia): 21 µM
TGI (CCRF-CEM leukemia): 91.1 µM
GI50 (HOP-62 NSCLC): 21.8 µM
TGI (HOP-62 NSCLC): 49.6 µM
GI50 (RPMI-8226 leukemia): 14.5 µM
TGI (RPMI-8226 leukemia): 37 µM
GI50 (HCT-116 colon): 20 µM
TGI (HCT-116 colon): 39.6 µM
GI50 (DU-145 prostate): 42.1 µM
TGI (DU-145 prostate): > 100 µM
GI50 (HCT-15 colon): 19.8 µM
TGI (HCT-15 colon): 44.5 µM
GI50 (UACC-62 melanoma): 28 µM
TGI (UACC-62 melanoma): 73 µM
GI50 (PC-3 prostate): 16.3 µM
TGI (PC-3 prostate): 37.1 µM
GI50 (MOLT-4 leukemia): 41.6 µM
TGI (MOLT-4 leukemia): > 100 µM
GI50 (SK-MEL-5 melanoma): 22.8 µM
TGI (SK-MEL-5 melanoma): 51.2 µM
GI50 (SF-268 CNS): > 100 µM
TGI (SF-268 CNS): > 100 µM
GI50 (HOP-92 NSCLC): 14.3 µM
TGI (HOP-92 NSCLC): 35.9 µM
GI50 (SF-295 CNS): 2.13 µM
TGI (SF-295 CNS): 24.7 µM
GI50 (K-562 leukemia): 5.6 µM
TGI (K-562 leukemia): > 100 µM
GI50 (BT-549 breast): 37 µM
TGI (BT-549 breast): 98.2 µM
GI50 (SW-620 colon): 42.4 µM
TGI (SW-620 colon): > 100 µM
GI50 (SNB-19 CNS): 50.7 µM
TGI (SNB-19 CNS): > 100 µM
GI50 (RXF 393 renal): 48.2 µM
TGI (RXF 393 renal): 81.2 µM
GI50 (SK-MEL-2 melanoma): 22.4 µM
TGI (SK-MEL-2 melanoma): 62.4 µM
GI50 (SF-539 CNS): 37.7 µM
TGI (SF-539 CNS): > 100 µM
GI50 (SK-OV-3 ovarian): 38.6 µM
TGI (SK-OV-3 ovarian): > 100 µM
GI50 (MDA-MB-231 breast): > 100 µM
TGI (MDA-MB-231 breast): > 100 µM
GI50 (SNB-75 CNS): 39.6 µM
TGI (SNB-75 CNS): > 100 µM
GI50 (HS 578T breast): 36.5 µM
TGI (HS 578T breast): > 100 µM
GI50 (HL-60(TB) leukemia): 18.2 µM
TGI (HL-60(TB) leukemia): 51.5 µM
GI50 (OVCAR-8 ovarian): 32.3 µM
TGI (OVCAR-8 ovarian): > 100 µM
GI50 (HCC-2998 colon): 17.2 µM
TGI (HCC-2998 colon): 34.1 µM
GI50 (OVCAR-3 ovarian): 22.3 µM
TGI (OVCAR-3 ovarian): 50.4 µM
GI50 (OVCAR-4 ovarian): 44.6 µM
TGI (OVCAR-4 ovarian): > 100 µM
GI50 (NCI-H23 lung): 22.6 µM
TGI (NCI-H23 lung): 46.5 µM
GI50 (LOX IMVI melanoma): 25.9 µM
TGI (LOX IMVI melanoma): 62 µM
GI50 (NCI/ADR-RES ovarian): 24.7 µM
TGI (NCI/ADR-RES ovarian): 60.3 µM
GI50 (A549 NSCLC): 41.8 µM
TGI (A549 NSCLC): 92.5 µM
GI50 (MDA-MB-435): 16.7 µM
TGI (MDA-MB-435): 33.6 µM
GI50 (IGROV1 ovarian): 17.8 µM
TGI (IGROV1 ovarian): 57.5 µM
GI50 (NCI-H460 lung): 29.2 µM
TGI (NCI-H460 lung): 76.3 µM
GI50 (KM12 colon): 25.7 µM
TGI (KM12 colon): 69 µM

From PubChem BioAssay (NCI)
